In this assay the target is Mucolipin-3 (Homo sapiens) (UniProt Q8TDD5). The assay can be described thus: TRPML3 channel agonist potency, late-stage follow-up, cell-based, fluorescence, dose response, round 3 (AID 602129). To be noted: HEK293 TRPML3 cells, calcium fluorescence.

Activity calls are given as the source filed them. The rule behind the calls is not given here.

Mucolipin-3 (Homo sapiens), sequence (Q8TDD5 whole entry, looked up): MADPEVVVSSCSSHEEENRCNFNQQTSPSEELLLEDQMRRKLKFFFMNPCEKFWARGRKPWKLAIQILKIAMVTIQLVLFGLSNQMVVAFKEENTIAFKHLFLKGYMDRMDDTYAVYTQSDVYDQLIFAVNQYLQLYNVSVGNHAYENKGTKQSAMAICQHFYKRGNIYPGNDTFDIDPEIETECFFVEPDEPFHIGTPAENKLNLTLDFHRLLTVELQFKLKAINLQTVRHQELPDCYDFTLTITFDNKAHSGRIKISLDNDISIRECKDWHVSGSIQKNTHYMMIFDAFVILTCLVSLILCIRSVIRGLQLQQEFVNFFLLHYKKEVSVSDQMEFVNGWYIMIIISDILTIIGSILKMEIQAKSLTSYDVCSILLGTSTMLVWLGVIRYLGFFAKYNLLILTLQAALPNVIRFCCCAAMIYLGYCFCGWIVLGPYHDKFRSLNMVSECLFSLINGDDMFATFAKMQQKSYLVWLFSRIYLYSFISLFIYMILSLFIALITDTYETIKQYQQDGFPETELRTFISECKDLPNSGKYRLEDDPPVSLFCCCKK

As usually defined, the EC50 is the concentration giving half of the maximal effect. For `Cc1onc(-c2ccc(Cl)cc2)c1-c1ccn(S(=O)(=O)c2cccc(Cl)c2)n1`, the EC50 was 1.95 µM.
`Cc1onc(-c2ccc(Cl)cc2)c1-c1ccn(S(=O)(=O)c2ccccc2)n1`: the EC50 was 2.39 µM.
`Cc1onc(-c2ccc(Cl)cc2)c1-c1ccn(S(=O)(=O)c2ccccc2Cl)n1`: the EC50 was 1.53 µM.
On to `Cc1onc(-c2ccc(Cl)cc2)c1-c1ccnn1S(=O)(=O)c1cccc(C(F)(F)F)c1`, for which the EC50 was > 29.9 µM (inactive).
For `CCOc1ccc(S(=O)(=O)N2CCOCC2)c2ccccc12`, the EC50 was > 29.9 µM (inactive).
Then `COc1ccc(-c2noc(C)c2-c2ccn(S(=O)(=O)c3ccc(C)cc3)n2)cc1`, with 2.99 µM; and `Cc1onc(-c2ccc(Cl)cc2)c1-c1ccn(S(=O)(=O)c2cccc3cccnc23)n1`, with > 29.9 µM (inactive); and `CCOc1ccc(S(=O)(=O)N2CCN(C(=O)OC(C)(C)C)CC2)c2ccccc12`, with > 29.9 µM (inactive).
On to `Cc1onc(-c2ccc(Cl)cc2)c1-c1ccn(S(=O)(=O)c2ccccc2C(F)(F)F)n1`, for which the EC50 is 3.58 µM.
As to `Cc1onc(-c2ccc(Cl)cc2)c1-c1ccn(S(=O)(=O)c2ccc(Cl)cc2)n1`, the EC50 entry was “inactive”.
Turning to `CCOc1ccc(S(=O)(=O)N(CC)CC)c2ccccc12`, the EC50 was > 29.9 µM (inactive).
In the case of `Cc1onc(-c2ccc(Cl)cc2)c1-c1ccnn1S(=O)(=O)c1ccc(Cl)cc1`, the EC50 is > 29.9 µM (inactive).
Regarding `Cc1ccc(S(=O)(=O)n2ccc(-c3c(-c4ccc(F)cc4)noc3C)n2)cc1`, the EC50 is 0.68 µM.
Regarding `Cc1ccccc1S(=O)(=O)n1ccc(-c2c(-c3ccc(Cl)cc3)noc2C)n1`, the EC50 was 4.86 µM.
On to `CCOc1ccc(S(=O)(=O)n2ccc(-c3c(-c4ccc(Cl)cc4)noc3C)n2)c2ccccc12`, for which the EC50 is > 29.9 µM (inactive).
As to `Cc1onc(-c2ccc(Cl)cc2)c1-c1ccn(S(=O)(=O)c2cccs2)n1`, the EC50 was > 29.9 µM (inactive).
The same measure for `Cc1onc(-c2ccc(Cl)cc2)c1-c1ccn(S(=O)(=O)c2ccc(C(F)(F)F)cc2)n1`: > 29.9 µM (inactive); for `COc1ccc(S(=O)(=O)n2ccc(-c3c(-c4ccc(Cl)cc4)noc3C)n2)cc1`: 3.78 µM.
Consider `CCOc1ccc(S(=O)(=O)N2CCSCC2)c2ccccc12`, for which the EC50 is > 29.9 µM (inactive).
For `Cc1onc(-c2ccc(Cl)cc2)c1-c1ccn(S(=O)(=O)C(F)(F)F)n1`, the EC50 was > 29.9 µM (inactive).
Then `CCOc1ccc(S(=O)(=O)N2CCCC2)c2ccccc12`, with > 29.9 µM (inactive); and `CCOc1ccc(S(=O)(=O)NCc2ccncc2)c2ccccc12`, with > 29.9 µM (inactive).
Then `CC(C)Oc1ccc(S(=O)(=O)N2CCCCCC2)c2ccccc12`, with “inactive”; and `Cc1onc(-c2ccc(Cl)cc2)c1-c1ccn(S(C)(=O)=O)n1`, with > 29.9 µM (inactive).
For `CCOc1ccc(S(=O)(=O)N2CCN(c3ccccc3Cl)CC2)c2ccccc12`, the EC50 is > 29.9 µM (inactive).
As for `Cc1onc(-c2ccccc2)c1-c1ccnn1S(=O)(=O)c1ccc(Cl)cc1`, the EC50 is > 29.9 µM (inactive).
For `CCOc1ccc(S(=O)(=O)NCc2ccc(OC)cc2)c2ccccc12`, the EC50 is > 29.9 µM (inactive).
In the case of `CCOc1ccc(S(=O)(=O)N2CCCCC2)c2ccccc12`, the EC50 was 3.46 µM.
The same measure for `Cc1ccc(S(=O)(=O)n2ccc(-c3c(-c4ccccc4)noc3C)n2)cc1`: 1.46 µM.
For `Cc1onc(-c2ccccc2)c1-c1ccn(S(=O)(=O)c2ccc(Cl)cc2)n1`, the EC50 is > 29.9 µM (inactive).
With `CCCCNS(=O)(=O)c1ccc(OCC)c2ccccc12`, the EC50 is > 29.9 µM (inactive).
For the compound `COc1ccc(S(=O)(=O)N2CCCCCC2)c2ccccc12`, the EC50 was 0.476 µM.
On to `Cc1ccc(S(=O)(=O)n2nccc2-c2c(-c3ccccc3)noc2C)cc1`, for which the EC50 is > 29.9 µM (inactive).
Then `Cc1onc(-c2ccc(Cl)cc2)c1-c1ccn(S(=O)(=O)c2cccc(C(F)(F)F)c2)n1`, with 3.34 µM.

These data come from PubChem BioAssay AID602129 (The Scripps Research Institute Molecular Screening Center, 2011).
